Values after ≈ are worked out from the molar mass of the structure shown.
Legend:
[1] = Cytotoxicity against human MCF7 cells assessed as growth inhibition at 10 ug/ml after 48 hrs by MTT assay relative to control; assay type: cell-based; conditions: read-out: GI
[2] = Cytotoxicity against human MCF7 cells assessed as growth inhibition at 30 ug/ml after 48 hrs by MTT assay relative to control; assay type: cell-based; conditions: read-out: GI
[3] = Cytotoxicity against human HCT116 cells assessed as growth inhibition at 3 ug/ml after 48 hrs by MTT assay relative to control; assay type: cell-based, HCT-116; conditions: read-out: GI
[4] = Cytotoxicity against human A549 cells assessed as growth inhibition at 30 ug/ml after 48 hrs by MTT assay relative to control; assay type: cell-based; conditions: read-out: GI
[5] = test system: Mycobacterium tuberculosis; test: Antimycobacterial activity against dormant state of Mycobacterium tuberculosis H37Ra assessed as growth inhibition at 30 ug/ml after 12 days by XTT reduction menadione assay relative to control; assay type: functional; conditions: 288 h, read-out: GI
[6] = test system: Mycobacterium tuberculosis; test: Antimycobacterial activity against dormant state of Mycobacterium tuberculosis H37Ra assessed as growth inhibition at 3 ug/ml after 12 days by XTT reduction menadione assay relative to control; assay type: functional; conditions: 288 h, read-out: GI
[7] = Cytotoxicity against human A549 cells assessed as growth inhibition at 3 ug/ml after 48 hrs by MTT assay relative to control; assay type: cell-based; conditions: read-out: GI
[8] = test system: Mycobacterium tuberculosis; test: Antimycobacterial activity against dormant state of Mycobacterium tuberculosis H37Ra by two fold dilution method; assay type: functional
[9] = Cytotoxicity against human HCT116 cells assessed as growth inhibition at 10 ug/ml after 48 hrs by MTT assay relative to control; assay type: cell-based, HCT-116; conditions: read-out: GI
[10] = Cytotoxicity against human HCT116 cells assessed as growth inhibition at 30 ug/ml after 48 hrs by MTT assay relative to control; assay type: cell-based, HCT-116; conditions: read-out: GI
[11] = Cytotoxicity against human A549 cells assessed as growth inhibition at 10 ug/ml after 48 hrs by MTT assay relative to control; assay type: cell-based; conditions: read-out: GI
[12] = Cytotoxicity against human MCF7 cells assessed as growth inhibition at 3 ug/ml after 48 hrs by MTT assay relative to control; assay type: cell-based; conditions: read-out: GI
[13] = test system: Mycobacterium tuberculosis; test: Antimycobacterial activity against dormant state of Mycobacterium tuberculosis H37Ra assessed as growth inhibition at 10 ug/ml after 12 days by XTT reduction menadione assay relative to control; assay type: functional; conditions: 288 h, read-out: GI
Pseudomonas fluorescens = test: Antibacterial activity against Pseudomonas fluorescens ATCC 13525 after 8 hrs; assay type: functional; conditions: ATCC 13525, 8 h
Staphylococcus aureus = test: Antibacterial activity against Staphylococcus aureus ATCC 29213 after 12 hrs; assay type: functional; conditions: ATCC 29213, 12 h
Bacillus subtilis = test: Antibacterial activity against Bacillus subtilis ATCC 23857 after 12 hrs; assay type: functional; conditions: ATCC 23857, 12 h
[14] = (§1) Cytotoxicity against human HCT116 cells assessed as growth inhibition after 48 hrs by MTT assay; assay type: cell-based, HCT-116; conditions: HCT116 cells
HCT-116 = test: as §1; assay type: cell-based; conditions: hct-116, 48 h
A549 = test: (§2) Cytotoxicity against human A549 cells assessed as growth inhibition after 48 hrs by MTT assay; assay type: cell-based; conditions: a549, 48 h
[15] = as §2; assay type: cell-based; conditions: A549 cells
Escherichia coli = test: Antibacterial activity against Escherichia coli ATCC […] after 8 hrs; assay type: functional
[16] = (§3) Cytotoxicity against human MCF7 cells assessed as growth inhibition after 48 hrs by MTT assay; assay type: cell-based; conditions: MCF7 cells
MCF7 = test: as §3; assay type: cell-based; conditions: mcf7, 48 h

| Structure (SMILES) | inhibition at 48 h, 10 ug/ml [1] [%] | inhibition at 48 h, 30 ug/ml [2] [%] | inhibition at 48 h, 3 ug/ml [3] [%] | inhibition at 48 h, 30 ug/ml [4] [%] | inhibition of growth at 30 µg/mL [5] [%] | inhibition of growth at 3 µg/mL [6] [%] | inhibition at 48 h, 3 ug/ml [7] [%] | MIC50 [8] [µg/mL] | MIC90 [8] [µg/mL] | inhibition at 48 h, 10 ug/ml [9] [%] | inhibition at 48 h, 30 ug/ml [10] [%] | inhibition at 48 h, 10 ug/ml [11] [%] | inhibition at 48 h, 3 ug/ml [12] [%] | inhibition of growth at 10 µg/mL [13] [%] | further results |
| --- | --- | --- | --- | --- | --- | --- | --- | --- | --- | --- | --- | --- | --- | --- | --- |
| Cc1cccc2cc(/C=C3\CN(C)C/C(=C\c4cc5cccc(C)c5nc4Cl)C3=O)c(Cl)nc12 | 0 | 0 | -4.3 | -20.4 | 51.5 | 22.4 | -11 | 27 (≈ 55.3 µM) | > 30 | 4.1 | 1.6 | 0 | 0 | 15.3 | – |
| Cc1ccc2cc(/C=C3\CNC/C(=C\c4cc5ccc(C)cc5nc4Cl)C3=O)c(Cl)nc2c1 | 10.1 | 15.7 | 29.7 | 0 | 98.3 | 5.8 | 5.4 | 8.7 (≈ 18.3 µM) | 25.5 (≈ 53.8 µM) | 30.9 | 33.8 | -16.9 | -3.4 | 61.2 | MIC50 (Pseudomonas fluorescens): > 30 µg/mL; MIC90 (Pseudomonas fluorescens): > 30 µg/mL; MIC50 (Staphylococcus aureus): > 30 µg/mL; MIC90 (Staphylococcus aureus): > 30 µg/mL; MIC50 (Bacillus subtilis): > 30 µg/mL; MIC90 (Bacillus subtilis): > 30 µg/mL; GI50 at 48 h [14]: > 100 µg/mL; GI90 (HCT-116): > 100 µg/mL; GI90 (A549): > 100 µg/mL; GI50 at 48 h [15]: > 100 µg/mL; MIC50 (Escherichia coli): > 30 µg/mL; MIC90 (Escherichia coli): > 30 µg/mL; GI50 at 48 h [16]: > 100 µg/mL; GI90 (MCF7): > 100 µg/mL |
| Cc1ccc2nc(Cl)c(/C=C3\CN(C)C/C(=C\c4cc5cc(C)ccc5nc4Cl)C3=O)cc2c1 | 18.7 | 44.8 | 12.5 | 0 | 36.8 | -18.6 | 0 | > 30 | > 30 | 10.5 | 16.5 | 0 | 1.7 | 15.6 | – |
| CC(=O)O[C@H]1C(=O)[C@@]2(C)[C@H]([C@H](OC(=O)c3ccccc3)[C@]3(O)C[C@H](OC(=O)[C@H](O)[C@@H](NC(=O)c4ccccc4)c4ccccc4)C(C)=C1C3(C)C)[C@]1(OC(C)=O)CO[C@@H]1C[C@@H]2O [PACLITAXEL] | – | – | – | – | – | – | – | – | – | – | – | – | – | – | GI50 at 48 h [14]: 0.128 µg/mL (≈ 0.15 µM); GI90 (HCT-116): 5.715 µg/mL (≈ 6.69 µM); GI90 (A549): 0.0706 µg/mL (≈ 0.0827 µM); GI90 (MCF7): 0.075 µg/mL (≈ 0.0878 µM) |
| Cc1cccc2cc(/C=C3\CNC/C(=C\c4cc5cccc(C)c5nc4Cl)C3=O)c(Cl)nc12 | 0 | 0 | 3.2 | -13.9 | 12.6 | 4.6 | 0 | > 30 | > 30 | 10.4 | 13.7 | 0 | 0 | 32.7 | – |
| O=C1/C(=C/c2cc3ccccc3nc2Cl)CNC/C1=C\c1cc2ccccc2nc1Cl | 23.2 | 26.3 | 0 | -14.1 | 33.3 | 9.6 | 0 | > 30 | > 30 | 0 | 0 | 0 | 22.2 | 43.6 | – |
| O=C1/C(=C/c2cc3cc(Cl)ccc3nc2Cl)CNC/C1=C\c1cc2cc(Cl)ccc2nc1Cl | 22.8 | 50 | -18.3 | -12 | 53.8 | 23.7 | 2.3 | 27.8 (≈ 54 µM) | > 30 | -22.2 | -14.5 | 0 | 14.3 | 24.5 | – |
| NC[C@H]1O[C@H](O[C@H]2[C@H](O)[C@@H](O[C@H]3O[C@H](CO)[C@@H](O)[C@H](N)[C@H]3O)[C@H](N)C[C@@H]2N)[C@H](O)[C@@H](O)[C@@H]1O [KANAMYCIN] | – | – | – | – | – | – | – | – | – | – | – | – | – | – | MIC50 (Staphylococcus aureus): > 30 µg/mL; MIC90 (Staphylococcus aureus): 16 µg/mL (≈ 33 µM) |
| COc1ccc2nc(Cl)c(/C=C3\CN(C)C/C(=C\c4cc5cc(OC)ccc5nc4Cl)C3=O)cc2c1 | -7.4 | 39 | -2.1 | 0 | -0.8 | 52 | 0 | > 30 | > 30 | 12.2 | 10.2 | 0 | -7.1 | -5.8 | – |
| CN1C/C(=C\c2cc3cc(F)ccc3nc2Cl)C(=O)/C(=C/c2cc3cc(F)ccc3nc2Cl)C1 | -0.6 | 32.3 | -0.4 | 0 | 34.1 | 39.7 | 0 | > 30 | > 30 | 10.3 | 12.7 | 0 | 7.8 | 14.7 | – |
| Cc1ccc2nc(Cl)c(/C=C3\CNC/C(=C\c4cc5cc(C)ccc5nc4Cl)C3=O)cc2c1 | 17.7 | 14.2 | 5.5 | 0 | 34.4 | 9.9 | -18.7 | > 30 | > 30 | 16.3 | 21.8 | 0 | 0.9 | 28.5 | – |
